Assay results: patent publication US12570603B2, “FABP4/5 inhibitors, methods of use and methods of making” (Novius Therapeutics, LLC, priority 2021, dated 2026)

What was measured:
FABP4 = target: T1, FABP4 (Homo sapiens, UniProt P15090); assay: FABP binding assay by fluorescence titration (ANS competition); conditions: fluorescence competition with ANS; read-out: FABP4 binding
T1 construct: made in house
Description: (§1) This example illustrates a binding assay study used to determine the binding affinity of the various inhibitor compounds disclosed herein with the various FABPs: FABP3, FABP4, FABP5 and FABP7.
(§2) Binding assays for FABP3, FABP4, FABP5 and FABP7 were carried out by fluorescence titrations. FABPs were bacterially expressed and purified and the equilibrium dissociation constants (Kd) that characterize their interactions with different compounds were measured by fluorescence competition assays. The method entails two steps as described in e.g., Lin, Q. et al., “Ligand selectivity of the peroxisome proliferator-activated receptor alpha,” Biochemistry 38, 185-190, doi:10.1021/bi9816094 bi9816094 [pii](1999). In the first step, Kd for the association of the protein with the fluorescent fatty acid probe ANS was measured. Protein ([…]) was titrated with ANS from a concentrated solution in DMSO. Ligand binding was monitored by following the increase in the fluorescence of the ligand upon binding to the protein, and Kd for the association of ANS with the each FABP was computed from titration curves as described in e.g., Norris, A. W. & Li, E., “Fluorometric titration of the CRABPs,” Methods Mol Biol 89, 123-139 (1998)). Kds for binding of non-fluorescent ligands were then measured by monitoring their ability to displace ANS in the binding pocket of the protein. Each FABP was pre-complexed with ANS at 1:1 molar ratio and titrated with the different compounds whose binding was reflected by a decrease in probe fluorescence. Kds were extracted from the EC50 of the competition curve and the measured Kd for ANS.
(§3) Binding assays for FABP3, FABP4, FABP5 and FABP7 were carried out by fluorescence titrations as described in Example 16.

FABP5 = target: T2, FABP5 (Homo sapiens, UniProt Q01469); assay: as above; conditions: fluorescence competition with ANS; read-out: FABP5 binding
T2 construct: made in house
Description: as §1, §2, §3

PPARδ = assay: Transactivation assay, PPRE luciferase reporter in COS-7 cells; type: cell-based; conditions: 5 μM, COS7 cells, FIG. 36A
Description: COS-7 were cultured in 6-well plates and co-transfected with either a luciferase reporter driven by 3 copies of a PPRE and expression vector for either PPARδ, PPARα or PPARγ together with a vector harboring cDNA for β-galactosidase, serving as a transfection control. To test whether FABP4 or FABP5 mediate activation of their cognate receptors PPARγ and PPARδ, respectively, cells were also co-transfected with a plasmid harboring sequence of either FABP4 or FABP5. 18 h post-transfection, cells were placed in a serum-free medium and treated with agonist/compound. 18 h. later, cells were lysed, luciferase activity was assayed (Promega, WI, USA) and corrected for transfection efficiency by the activity of β-galactosidase.
COS-7 were cultured in 6-well plates and co-transfected with either a luciferase reporter driven by 3 copies of a PPRE and expression vector for either PPARδ, PPARα or PPARγ together with a vector harboring cDNA for β-galactosidase, serving as a transfection control. 18 h. post-transfection, cells were placed in a serum-free medium and treated with agonist/compound. 18 h. later, cells were lysed, luciferase activity was assayed (Promega, WI, USA) and corrected for transfection efficiency by the activity of β-galactosidase.

HepG2 cells = assay: Lipid uptake assay, oleic acid, Nile Red (steatosis model); type: cell-based, human; conditions: OA 1 mM 24 h, compound 4 h before
Description: 2) Hepg2 cells: 5000 cells were plated in 96-well plate. The next day cells were treated with tested compounds for 4 hours and then treated with 1 mM oleic acid for additional 24 hours. Cells were then stained with Nile Red and Dapi and lipid content was quantified using Cytation5 (Agilent).
2) Hepg2 cells: 5000 cells were plated in 96-well plate. The next day cells were treated with tested compounds for 4 hours and then treated with 1 mM oleic acid for additional 24 hours. Cells were then stained with Nile Red and Dapi and lipid content was quantified.

MB-231 cells = assay: Proliferation assay (Incucyte confluency, 4 days); type: cell-based; conditions: MB-231, serial dilution
Description: (§4) COS-7, MDA-MB-231, HepG2, LX-2, 3T3-L1, NPG, and MCF7 were cultured in Dulbecco's modified Eagle's medium (DMEM) supplemented with 10% fetal bovine serum (Invitrogen Life Sciences, Carlsbad, CA). MDA-MB-157 and MB-549 cells were cultured in L-Glutamine containing RPMI medium supplemented with 10% fetal calf serum (Invitrogen Life Sciences, Carlsbad, CA). For proliferation assays, 2000 cells were plated in each well of 96-well plate. The next day cells were treated with compounds and incubated in Incucyte for 4 days. Images taken every 4 hours for the duration of the time were analyzed to calculate percentage of confluency in response to the treatments.
(§5) The TNBC line MB-231 was used to calculate the efficacy of compounds B104, B106, B110, B116, and B118 in inhibiting proliferation of the cancer cells. Cells were treated with serial dilution of the compounds or the known FABP5/7 inhibitor SBF-I26 and proliferation was measured in Incucyte by calculating percentage of confluency every 4 hours over 4 days. […] The EC50 for each compound was calculated by fitting the percentage of inhibition vs. the logarithmic transformation of the used concentrations (FIG. 37B and FIG. 37D). Additionally, the effect of B116 and B118 was also tested on proliferation of the human TNBC lines MDA-MB-157 (FIG. 37E) and MB-549 (FIG. 37F).

MB-549 = assay: Proliferation assay (Incucyte confluency, 4 days); type: cell-based, human; conditions: MB-549, 4 days
Description: as §4, §5

MDA-MB-157 = assay: Proliferation assay (Incucyte confluency, 4 days); type: cell-based, human; conditions: MDA-MB-157, 4 days
Description: as §4, §5

[1] = tested on: NPG human neuroblastoma cells; assay: Neuroblastoma proliferation assay with or without all-trans retinoic acid; type: cell-based; conditions: for proliferation of neuroblastoma cells in combination with atRA: combined with atRA; for proliferation of neuroblastoma cells: compound alone, 4 days
Description: as §4
Activation of PPARβ by atRA shifts the signaling of this vitamin from its cognate receptor RAR that is known to have anti-carcinogenic activities in multiple cancers to the pro-carcinogenic PPARβ. […] Accordingly, NB, human NPG cells were used to test the effect of FABP5 inhibitors on cells' proliferation in combination with atRA. Cells were treated with either B104 or B108 in the presence or absence of atRA.

T2 sequence (Q01469 whole entry, species assumed): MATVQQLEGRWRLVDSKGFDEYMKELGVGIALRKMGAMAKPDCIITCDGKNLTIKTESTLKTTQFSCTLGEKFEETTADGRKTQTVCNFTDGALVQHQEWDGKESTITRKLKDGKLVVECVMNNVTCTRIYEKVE
T1 sequence (P15090 whole entry, species assumed): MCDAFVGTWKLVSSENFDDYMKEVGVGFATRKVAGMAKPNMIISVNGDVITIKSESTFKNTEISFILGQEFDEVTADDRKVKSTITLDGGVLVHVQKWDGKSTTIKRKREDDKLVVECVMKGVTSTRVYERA

## CC(C)Oc1cc(NC(=O)CC(C)(C)CC(=O)O)c(Cl)cc1Cl [Compound B116, 5-((2,4-dichloro-5-isopropoxyphenyl)amino)-3,3-dimethyl-5-oxopentanoic acid]
FABP4
  Kd: 90 nM
FABP5
  Kd: 3 nM
PPARδ
  activation of transcription by PPARδ: do not Activate Transcription
HepG2 cells
  uptake of lipid into hepatic cells (Nile Red): markedly inhibited
MB-231 cells
  suppression of growth of TNBC cells compared with SBF-I26: Suppress Growth of TNBC Cells More Effectively than the Commercially Available Inhibitor SBF-I26
MB-549
  proliferation: inhibited proliferation of both TNBC lines
MDA-MB-157
  proliferation: inhibited proliferation of both TNBC lines
[1]
  proliferation of neuroblastoma cells in combination with atRA: sensitize cells to all-trans retinoic acid treatments
  proliferation of neuroblastoma cells: inhibit growth of neuroblastoma

## CC(C)Oc1cc(NC(=O)CC2(CC(=O)O)CCCC2)c(Cl)cc1Cl [Compound B118, 2-(1-(2-((2,4-dichloro-5-isopropoxyphenyl)amino)-2-oxoethyl)cyclopentyl)acetic acid]
FABP4
  Kd: 78 nM
FABP5
  Kd: 2 nM
PPARδ
  activation of transcription by PPARδ: do not Activate Transcription
HepG2 cells
  uptake of lipid into hepatic cells (Nile Red): markedly inhibited
MB-231 cells
  suppression of growth of TNBC cells compared with SBF-I26: Suppress Growth of TNBC Cells More Effectively than the Commercially Available Inhibitor SBF-I26
MB-549
  proliferation: inhibited proliferation of both TNBC lines
MDA-MB-157
  proliferation: inhibited proliferation of both TNBC lines
[1]
  proliferation of neuroblastoma cells in combination with atRA: sensitize cells to all-trans retinoic acid treatments
  proliferation of neuroblastoma cells: inhibit growth of neuroblastoma
